According to patent US10792265B2, “Methods of treating or preventing fibrotic lung diseases” (YALE UNIVERSITY, priority 2014, dated 2020):
Entries after “also recorded” stand apart in the source; their conditions may differ.

Experiments:
[1] = test system: bleomycin-induced fibrosis in mice; assay: Bleomycin-induced lung fibrosis model in mice (hydroxyproline, collagen, qRT-PCR of fibrotic genes, Masson trichrome); type: in vivo
[2] = test system: alveolar epithelial cells isolated from bleomycin injured lungs; assay: Gene expression analysis in alveolar epithelial cells isolated from bleomycin injured lungs before and after T3 aerosolized delivery; type: in vivo
Description: Experiments were run to delineate a potential mechanistic pathway through which thyroid hormones exert their protective role in the development and progression of experimental lung fibrosis. […] Similar experiments were run in A549 lung adenocarcinoma cell lines before and after thyroid hormone administration.

[3] = T3 and TSH level in the sera of treated bleomycin mice (ELISA); type: in vivo
[4] = test system: bleomycin-induced mortality; assay: Bleomycin-induced mortality by Kaplan-Meier survival curve analysis; type: in vivo, mice; conditions: bleomycin 4.5 U/kg intratracheally day 0; T3 40 μg/kg nebulized and inhaled every other day since day 7 (FIG. 5F)
Protocol: 40 μg/kg of T3 was nebulized and inhaled day 10, 12, 14, 16 after bleomycin treatment at dose of 1.5 U/kg, Saline as control. Mice were sacrificed at day 21. […] FIG. 5B: Col1a1 mRNA expression was detected by QRT-PCR (n=8 in each group). FIG. 5C: Col3a1 mRNA expression was detected by QRT-PCR. […] FIG. 5F: Bleomycin-induced mortality by Kaplan-Meier survival curve analysis. 4.5 U/kg of bleomycin was delivered intratracheally at day 0, 40 μg/kg of T3 was nebulized and inhaled every other day since day 7, saline treatment as control group.

[5] = treatment injected at day 3 after bleomycin, sacrificed day 14 (FIG. 4A)
[6] = treatment injected at day 7 after bleomycin, sacrificed day 14 (FIG. 4C)

SMILES	Bleomycin-induced lung fibrosis (overall severity) ([1]; bleomycin 1.5 U/Kg intratracheally, PTU 100 mg/kg intraperitoneally at day 3 and day 7, sacrificed day 14)	Hydroxyproline content in the right lungs ([1]; bleomycin 1.5 U/Kg, PTU 100 mg/kg intraperitoneally day 3 and day 7, day 14 (FIG. 3A))	Collagen content in the right lungs ([1]; bleomycin 1.5 U/Kg, PTU 100 mg/kg intraperitoneally day 3 and day 7, day 14 (FIG. 3B))	Hydroxyproline measurements [1, 5]	Hydroxyproline measurements [1, 6]	Gene expression in alveolar epithelial cells [2]	Bleomycin-induced fibrosis (overall) ([1]; T3 40 μg/kg nebulized and inhaled day 10, 12, 14, 16 after bleomycin 1.5 U/kg, sacrificed day 21)	Hydroxyproline content ([1]; T3 inhalation 40 μg/kg day 10, 12, 14, 16 after bleomycin 1.5 U/kg, day 21 (FIG. 5A))	T3 level in the sera by ELISA ([3]; after T3 inhalation 40 μg/kg in bleomycin mice, n=10 (FIG. 5D))	Survival / bleomycin-induced mortality (Kaplan-Meier) [4]	Pulmonary fibrosis / fibrotic process (fibrotic markers and structural changes) ([1]; T4 after bleomycin instillation, intraperitoneal, 40 mg/kg or 50 mg/kg, sacrificed day 14)	Gene expressions of Col1a1, Col3a1, S100a4 and Acta2 (QRT-PCR) ([1]; T4 injected at day 3 after bleomycin, n=8, p<0.05 (FIG. 4B))	Gene expressions of Col1a1, Col3a1, S100a4 and Acta2 (QRT-PCR) ([1]; T4 injected at day 7 after bleomycin, n=8, p<0.05 (FIG. 4D))	Fibrotic and inflammatory response to bleomycin, histological examination by masson trichrome staining ([1]; T4 treatment at either day 3 or day 7 (FIG. 4G))	Circulating levels of T3 ([3]; after T4 systemic administration in bleomycin mice, n=10, p<0.05 (FIG. 4E))
CCCc1cc(=O)[nH]c(=S)[nH]1 [PTU, propylthiouracil]	more severe bleomycin-induced lung fibrosis; also recorded: aggravates fibrosis	significant elevation	significant elevation	significant increase	significant increase										
N[C@@H](Cc1cc(I)c(Oc2ccc(O)c(I)c2)c(I)c1)C(=O)O [T3, (S)-2-amino-3-[4-(4-hydroxy-3-iodophenoxy)-3,5-diiodophenyl]propanoic acid]						upregulation of several anti-apoptotic genes	blunts bleomycin-induced fibrosis	statistically significant blunting; also recorded: declines hydroxyproline content	does not affect the level of T3	significant increase in survival; also recorded: reduces mortality					
N[C@@H](Cc1cc(I)c(Oc2cc(I)c(O)c(I)c2)c(I)c1)C(=O)O [T4, (S)-2-amino-3-[4-(4-hydroxy-3,5-diiodophenoxy)-3,5-diiodophenyl]propanoic acid]				no statistically significant reduction; also recorded: no statistical difference in the T4 treated group from the saline group	no statistically significant reduction; also recorded: no statistical difference in the T4 treated group from the saline group						significant attenuation of the fibrotic process; also recorded: attenuates the pulmonary fibrosis	markedly suppresses	significantly suppresses	attenuated	statistically significant increase
